Measurements reported in paper PMC11647683, “Structural Aspects of Mycobacterium tuberculosis DNA Gyrase Targeted by Novel Bacterial Topoisomerase Inhibitors” (ACS Medicinal Chemistry Letters, 2024).

Test system: M. tuberculosis LP-FQ-RM9
Format: cell-based, Mycobacterium tuberculosis
Conditions: for IC50: read-out: Antituberculosis activity M. tuberculosis LP-FQ-RM9 IC50; for IC90: read-out: Antituberculosis activity M. tuberculosis LP-FQ-RM9 IC90

Compound: COc1ccc2nccc(CCN3CCC(NCc4ccc(Br)c(F)c4)CC3)c2n1 [Compound 1]
- IC50: 380 ± 50 nM
- IC90: 520 ± 145 nM

Compound: COc1ccc2nccc(CCN3CCC(NCc4ccc(I)c(F)c4)CC3)c2n1 [Compound 2]
- IC50: 420 ± 80 nM
- IC90: 580 ± 180 nM

Compound: COc1ccc2nccc(CCN3CCC(NCc4cc(F)c(Cl)c(F)c4)CC3)c2n1 [Compound 3]
- IC50: 290 nM
- IC90: 430 nM

Compound: COc1ccc2nccc(CCN3CCC(NCc4cc(F)c(Br)c(F)c4)CC3)c2n1 [Compound 4]
- IC90: 260 nM

Compound: COc1ccc2nccc(C(O)CC3CCC(NCc4cc(F)c(Br)c(F)c4)CC3)c2n1 (centres unmarked) [Compound 5]
- IC90: 1000 ± 75 nM

Compound: C[C@H]1COc2c(N3CCN(C)CC3)c(F)cc3c(=O)c(C(=O)O)cn1c23 [Levofloxacin, reference compound]
- IC50: > 10000 nM
- IC90: > 10000 nM
- activity against the fluoroquinolone-resistant strain (result in words): no activity was observed
